What all share (assay type): cell-based
Experiment [1] concerns the target T1, hDAT (Homo sapiens, UniProt Q01959).
T1 construct: expressed in transfected cells
In words: Transporter release (superfusion) assay in HEK293 cells expressing hDAT. As to the method: (§1) The generation of HEK293 cells stably expressing the human isoforms of DAT (hDAT) and NET (hNET) was carried out as described previously (Scholze et al., 2002). For SERT, the human isoform (hSERT) was cloned in frame with yellow fluorescent protein (Schmid et al., 2001). The generation of a stable cell line was performed as described by Hilber and colleagues (Hilber et al., 2005). HEK293 cells were maintained in humidified atmosphere (5% CO2, 37°C) in DMEM, supplemented with 10% heat‐inactivated FBS and penicillin (100 u 100 mL^−1) and streptomycin (100 μg 100 mL^−1). Selection pressure was maintained by adding geneticin (50 μg·mL^−1) to the cell culture media.
(§2) Superfusion experiments were performed as described previously (Scholze et al., 2002). Briefly, HEK293 cells expressing the desired transporter were seeded at a density of 40 000 cells per well onto poly‐D‐lysine‐coated 5 mm glass cover slips in 96‐well plates 24 h prior to the experiment. Cells were preloaded with [^3H]‐MPP^+ (0.1 μM, hDAT and hNET) or [^3H]‐5‐HT (0.4 μM, hSERT) for 20 min at 37°C in a final volume of 100 μL per well. Subsequently, glass coverslips were transferred into small superfusion chambers (volume of 200 μL) and superfused with KHB at 25°C with a superfusion rate of 0.7 mL·min^−1 for 40 min to establish a stable basal efflux. After washout, the collection of 2‐min fractions was initiated. After the first three basal fractions, monensin (10 μM) or solvent was added for four fractions. Consequently, the cells were challenged with test drugs (10 μM) for five fractions in the presence or absence of monensin. Finally, the cells were lysed in 1% SDS to determine the total radioactivity. Radioactivity per fraction was assessed by a liquid scintillation counter and expressed as fractional release, that is, the percentage of released ^3H in relation to total ^3H present at the beginning of the fraction (Sitte et al., 2000). For analysis, release was expressed as AUC.
(§3) Calculations were performed using Microsoft Excel® 2010 (Microsoft Corporation, Redmond, WA, USA) and GRAPHPAD PRISM 5.0. (GraphPad Software Inc., La Jolla, CA, USA). IC50 values for uptake inhibition and EC50 values for release were determined by nonlinear regression fits. Release data expressed as AUC were analysed by one‐way ANOVA followed by Bonferroni's multiple comparison test. Microdialysis and locomotor data were analysed by two‐way ANOVA (drug treatment × time) followed by Bonferroni's test. The effect of monensin treatment on basal efflux of tritiated substrate was analysed with the Mann–Whitney test. P values less than 0.05 (i.e. P < 0.05) were considered significant. The data and statistical analysis comply with the recommendations on experimental design and analysis in pharmacology (Curtis et al., 2015).
Data from uptake inhibition assays cannot distinguish whether test drugs act as non‐transported inhibitors or transportable substrates, which evoke release (Scholze et al., 2000; Sitte et al., 2000; Baumann et al., 2013). Therefore, mephedrone and its metabolites were tested in release assays to further explore their interaction with transporters. The release assays were performed with the same transporter‐expressing HEK293 cell lines described above and used a superfusion system (Sitte et al., 2000). As described previously, efflux of preloaded [^3H]‐MPP^+ or [^3H]‐5‐HT was monitored in the presence or absence of monensin (10 μM) (Scholze et al., 2000). […]

Experiment [2] concerns the target T1, hDAT. In words: Transporter uptake inhibition in HEK293 cells expressing hDAT. The conditions noted are these: [3H]-MPP+ uptake. As to the method: as §1
(§4) Uptake experiments were conducted as described previously (Sitte et al., 2001) with minor modifications. In brief, HEK293 cells expressing hDAT, hNET or hSERT were seeded into poly‐D‐lysine (PDL) coated 96‐well plates at a density of 40 000 cells per well. The next day, DMEM was aspirated and replaced with Krebs HEPES buffer (KHB, 25 mM HEPES, 120 mM NaCl, 5 mM KCl, 1.2 mM CaCl2, and 1.2 mM MgSO4, 5 mM D‐glucose, pH adjusted to 7.3 with NaOH) (200 μL per well), and cells were pre‐incubated with various concentrations of mephedrone or its metabolites for 5 min (50 μL per well). Subsequently, 0.1 μM of [^3H]‐5‐HT or 0.02 μM of [^3H]‐MPP^+ were added, and uptake was terminated after 1 (hSERT) or 3 min (hDAT, hNET) by washing the cells with 200 μL of ice‐cold KHB. Cells were lysed with 1% SDS, and tritium uptake was determined by scintillation counting. Nonspecific uptake was determined in the presence of 10 μM paroxetine (hSERT) or 10 μM mazindol (hDAT and hNET).
as §3

In experiment [3] the target is T2, hNET (Homo sapiens, UniProt P23975).
T2 construct: expressed in transfected cells
In words: Transporter uptake inhibition in HEK293 cells expressing hNET. As to conditions: [3H]-MPP+ uptake. As to the method:
as §1, §4
as §3, with “GRAPHPAD” left out

A further experiment addresses T3, hSERT (Homo sapiens, UniProt P31645).
T3 construct: yellow fluorescent protein (YFP); expressed in transfected cells
In words: Transporter uptake inhibition in HEK293 cells expressing hSERT. The conditions noted are these: [3H]-5-HT uptake. As to the method:
as §1, §4, §3

Experiment [4] deals with T2, hNET. In words: Transporter release (superfusion) assay in HEK293 cells expressing hNET. As to conditions: test drug 10 μM, monensin 10 μM; post hoc Bonferroni. As to the method: as §1
as §2, with “Consequently, the cells were challenged with test drugs (10 μM) for five fractions in the presence or absence of monensin.” left out
Calculations were performed using Microsoft Excel® 2010 (Microsoft Corporation, Redmond, WA, USA) and GRAPHPAD PRISM 5.0. […] IC50 values for uptake inhibition and EC50 values for release were determined by nonlinear regression fits. Release data expressed as AUC were analysed by one‐way ANOVA followed by Bonferroni's multiple comparison test. Microdialysis and locomotor data were analysed by two‐way ANOVA (drug treatment × time) followed by Bonferroni's test. The effect of monensin treatment on basal efflux of tritiated substrate was analysed with the Mann–Whitney test. […]
Data from uptake inhibition assays cannot distinguish whether test drugs act as non‐transported inhibitors or transportable substrates, which evoke release (Scholze et al., 2000; Sitte et al., 2000; Baumann et al., 2013). […] As described previously, efflux of preloaded [^3H]‐MPP^+ or [^3H]‐5‐HT was monitored in the presence or absence of monensin (10 μM) (Scholze et al., 2000). […]

Several values for one entry are separate records, joined by “and”; a condition that tells them apart may be missing. Equal values may be shown once.

T2 sequence (P23975 whole entry): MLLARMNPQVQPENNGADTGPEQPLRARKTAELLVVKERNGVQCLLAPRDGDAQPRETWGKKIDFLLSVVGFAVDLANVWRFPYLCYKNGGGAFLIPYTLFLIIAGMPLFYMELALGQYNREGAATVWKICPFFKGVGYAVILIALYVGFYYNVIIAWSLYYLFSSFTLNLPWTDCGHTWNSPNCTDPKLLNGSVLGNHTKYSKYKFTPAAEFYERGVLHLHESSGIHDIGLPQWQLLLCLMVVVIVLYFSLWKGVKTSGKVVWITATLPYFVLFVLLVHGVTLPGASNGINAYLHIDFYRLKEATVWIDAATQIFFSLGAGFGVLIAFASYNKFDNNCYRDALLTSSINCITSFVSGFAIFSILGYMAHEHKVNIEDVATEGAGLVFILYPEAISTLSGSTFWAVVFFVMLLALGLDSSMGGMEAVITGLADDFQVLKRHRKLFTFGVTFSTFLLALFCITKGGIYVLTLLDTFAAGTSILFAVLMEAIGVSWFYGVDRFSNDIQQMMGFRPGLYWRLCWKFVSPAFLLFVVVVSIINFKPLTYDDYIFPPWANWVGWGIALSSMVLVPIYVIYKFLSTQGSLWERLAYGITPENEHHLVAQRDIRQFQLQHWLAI
T1 sequence (Q01959 whole entry): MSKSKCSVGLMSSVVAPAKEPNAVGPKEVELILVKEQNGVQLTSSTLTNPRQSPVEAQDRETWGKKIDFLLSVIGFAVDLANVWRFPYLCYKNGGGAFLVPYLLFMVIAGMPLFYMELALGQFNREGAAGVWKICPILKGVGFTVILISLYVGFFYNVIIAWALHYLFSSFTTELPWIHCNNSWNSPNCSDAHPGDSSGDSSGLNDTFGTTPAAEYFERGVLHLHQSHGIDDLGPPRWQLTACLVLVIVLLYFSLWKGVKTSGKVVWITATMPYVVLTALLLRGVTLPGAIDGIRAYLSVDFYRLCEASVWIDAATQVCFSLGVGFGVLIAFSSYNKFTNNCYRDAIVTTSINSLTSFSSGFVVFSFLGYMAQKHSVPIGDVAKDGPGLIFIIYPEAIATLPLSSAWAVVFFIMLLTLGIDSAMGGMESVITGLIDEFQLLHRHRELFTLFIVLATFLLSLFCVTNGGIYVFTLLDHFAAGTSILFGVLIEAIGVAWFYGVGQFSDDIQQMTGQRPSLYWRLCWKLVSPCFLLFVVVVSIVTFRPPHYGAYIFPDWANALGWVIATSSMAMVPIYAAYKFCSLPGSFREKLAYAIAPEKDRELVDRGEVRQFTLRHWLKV
T3 sequence (P31645 whole entry): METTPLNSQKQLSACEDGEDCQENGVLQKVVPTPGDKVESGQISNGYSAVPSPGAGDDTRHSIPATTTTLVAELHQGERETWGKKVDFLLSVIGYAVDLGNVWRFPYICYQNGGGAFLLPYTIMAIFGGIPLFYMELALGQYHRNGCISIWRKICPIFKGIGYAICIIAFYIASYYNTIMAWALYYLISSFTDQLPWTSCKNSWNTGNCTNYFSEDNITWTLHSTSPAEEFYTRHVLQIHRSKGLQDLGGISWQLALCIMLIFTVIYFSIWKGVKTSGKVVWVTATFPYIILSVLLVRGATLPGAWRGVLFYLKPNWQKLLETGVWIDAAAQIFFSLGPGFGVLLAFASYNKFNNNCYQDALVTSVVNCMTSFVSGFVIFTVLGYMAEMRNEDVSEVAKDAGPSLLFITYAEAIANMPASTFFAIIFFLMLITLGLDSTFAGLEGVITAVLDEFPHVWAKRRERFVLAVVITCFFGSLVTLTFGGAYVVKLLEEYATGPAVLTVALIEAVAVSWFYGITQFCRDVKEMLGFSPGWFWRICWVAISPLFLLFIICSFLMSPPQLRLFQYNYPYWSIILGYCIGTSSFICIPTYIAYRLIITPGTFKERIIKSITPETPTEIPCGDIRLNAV

`CC[C@@]1([C@@H]2O[C@@H]([C@H]3O[C@@](O)(CO)[C@H](C)C[C@@H]3C)C[C@@H]2C)CC[C@H]([C@]2(C)CC[C@]3(C[C@H](O)[C@@H](C)[C@@H]([C@@H](C)[C@@H](OC)[C@H](C)C(=O)O)O3)O2)O1` [monensin, reference compound]: at hDAT [1] (monensin 10 μM alone, P < 0.05, Mann–Whitney test), the “effect of monensin alone on substrate release (basal efflux)” value was “significant albeit modest increase”.

For `CNC(C)C(O)c1ccc(C)cc1.Cl` (stereo not drawn) [Dihydromephedrone, 2‐(methylamino)‐1‐(p‐tolyl)propan‐1‐ol hydrochloride], the IC50 against hDAT [2] (IC50 on uptake mediated by hDAT, mean (95% confidence interval)) is 24 µM; against hNET [3] (IC50 on uptake mediated by hNET, mean (95% confidence interval)) it was 24 µM and 23.5 µM; against hSERT (IC50 on uptake mediated by hSERT, mean (95% confidence interval)) it was 65 µM. The “efficacy of uptake inhibition at hDAT” value on hDAT [2] is on record as “fully efficacious inhibitors of uptake”. Further, the “efficacy of uptake inhibition at hNET” value at hNET [3] is recorded as “fully efficacious inhibitors of uptake”. The “efficacy of uptake inhibition at hSERT” value at hSERT is recorded as “fully efficacious inhibitors of uptake”. Further, the “enhancement by monensin of drug-evoked [3H]-MPP+ release at hDAT (AUC)” value on hDAT [1] (test drug 10 μM, monensin 10 μM, post hoc Bonferroni) is recorded as “not”. The “enhancement by monensin of drug-evoked [3H]-MPP+ release at hNET (AUC)” value at hNET [4] is given as “not”.

These data come from PMC4978154, “Phase I metabolites of mephedrone display biological activity as substrates at monoamine transporters” (British Journal of Pharmacology, 2016).
